Experimental findings from patent US20110028566A1, “COMPOSITIONS AND PRODUCTS CONTAINING CYCLOALIPHATIC DIOL ANTIMICROBIAL AGENTS AND METHODS OF USING THE COMPOSITIONS AND PRODUCTS” (EASTMAN CHEMICAL COMPANY, priority 2009, published 2011) are described below.

SMILES strings stand for the structures. Entries after “also recorded” stand apart in the source; their conditions may differ. Where only a bound is given, the exact number is not on record here.

The nature of data set [1]: Solubility in aqueous growth media. The data set is classed as physicochemical. From the text:
Final results have been summarized below in Table 59.

Data set [2] relates to panel of five strains of microorganisms. Put plainly: MIC comparison of 1,1- and 1,4-CHDM (Example 6), statements over the panel. The format is cell-based. To be noted: MIC at 24, 48 and 72 hours. The procedure:
The antimicrobial activities of 1,4-cyclohexanedimethanol (1,4-CHDM) and 1,1-cyclohexanedimethanol (1,1-CHDM) have been determined. […] MICs were individually calculated for three consecutive days with both 1,1-cyclohexanedimethanol and the 31% cis:69% trans mixture of 1,4-cyclohexanedimethanol. Both compounds were evaluated against a panel of five strains of microorganisms.
Strains P. aeruginosa, C. albicans, E. coli, A. niger and S. aureus were purchased from the American Type Culture Collection (Manassas, Va.). […] Absorbance measurements were taken with a TECAN GENios Pro microplate reader. […]
Each plate was covered and incubated at the appropriate temperature and turbidity as a measure of cell density was determined via absorbance measurement at 612 nm using a microplate reader. […] The raw data was exported into an Excel spreadsheet and the MIC values were determined and expressed as wt %. The absorbance of each inoculated CHDM well was retrieved by first subtracting out the average reading for each uninoculated well, then by comparison to a positive threshold to determine positive or negative status for growth. The positive threshold was calculated by multiplication of the average absorbance for the inoculated media-only wells by 0.05. The MIC was determined as the lowest test concentration resulting in all three replicate wells displaying values below the positive threshold.

Data set [3] deals with Staphylococcus aureus ATCC 25923. Put plainly: MIC determination and synergy testing (Kull synergy index), microplate. The data set is classed as cell-based. To be noted: MP: MIC alone (QB) or conc. in combination with CHDM (b), plate 166D. How it is done: (§1) The test cultures are listed in Table 7 along with the incubation temperatures used for growth and minimum inhibitory concentration (MIC) testing. […] C. albicans was cultured in Sabouraud dextrose broth (SDB) for approximately 44-52 hours for preparation of inoculum. A. niger was cultured on Sabouraud dextrose agar (SDA) for 3-4 days until there was confluent growth and visible spore formation. Spores were harvested from the SDA plates by flooding the surface of the plate with 5-10 mL of phosphate-buffered saline (PBS) and gently spreading the liquid across the surface of the plate with a sterile T-shaped plastic spreader (Copan Diagnostics) until there was a well-mixed suspension of spores. The resulting spore suspension was collected using a serological pipette and stored at 2-8° C. until use.
(§2) Inoculum concentration was determined by dilution plating of the cultures or spore suspension. A serial dilution in PBS was made to 10^−8 for the bacterial cultures or 10^−5 for the fungal cultures. Fifty or 100 μL of the final dilution was spread on two Trypticase-soy agar (TSA) plates for bacteria or two SDA plates for fungi. After 24 to 48 hours plates were counted and the concentrations used in each experiment were calculated.
(§3) The antimicrobial agents tested for synergy along with the respective diluents and working stock solution concentrations are shown below. For determination of MIC ranges, individual antimicrobial agent stock solutions were added to sterile medium to yield the highest level test concentrations, and then serially diluted in the medium to prepare the range of test concentrations. For synergy testing individual test concentrations were prepared in sterile medium, and then blended to form the desired combinations.
(§4) MICs were determined using a high-throughput microplate method. Individual antimicrobial agents were added to TSB (pH 7.3) for bacterial testing or SDB (pH 5.6) for fungal testing at the highest concentration to be tested. A serial dilution series was prepared at a dilution ratio of 1:1.3333 such that a one log range was covered in nine dilutions. Two-hundred microliters of the diluted antimicrobial agents were dispensed into four wells each of a sterile, 96-well, flat-bottom microplate (Nalge Nunc International). Four additional wells of the highest concentration were dispensed to serve as uninoculated high-level controls. Eight additional wells containing only broth medium were also prepared, four to serve as negative controls and four as positive controls. Three wells of each antimicrobial agent dilution were inoculated with one of the test strains in Table 7. The final well of each antimicrobial agent dilution was left uninoculated to serve as a control (and means of compensating) for any absorbance/turbidity due to the test compounds.
(§5) Microplates were inoculated using the cultures or spore suspensions prepared as described above. The S. aureus cultures were used undiluted, while the E. coli and P. aeruginosa cultures were used either undiluted or after a 1:2 dilution in sterile TSB. The C. albicans cultures were used either undiluted or following a 2-fold concentration by centrifugation. One of two means of inoculation was used to deliver a final concentration of approximately 10^5 colony-forming units (CFU)/mL of C. albicans, 10^5 spores/mL of A. niger, or 10^6 CFU/mL of bacteria. The primary method used a stainless steel pin replicator (Nalge Nunc International) mounted on a hand-operated bench-top press (Schmidt Technology Corporation) fitted with a custom-built microplate holder to dispense one microliter of each inoculum from a “master” plate containing 50-100 μL of culture into the wells of the test plate. The pin replicator was sterilized before and between inoculations by immersing in ethanol and flaming. The alternative method of inoculation was by directly pipetting 20 μL of a 1:20 dilution of each culture or spore suspension into the appropriate wells of the test plates.

For data set [4], the system named is Pseudomonas aeruginosa ATCC 27853. The data set is described as above. To be noted: MP: MIC alone (QB) or conc. in combination with CHDM (b); plate 146E; day 1. The data set is classed as cell-based. How it is done:
as §1, §2, §3, §4, §5

Data set [5] concerns Aspergillus niger ATCC 16404. The description is as above. The data set is classed as cell-based. As to conditions: A. niger; plate 154C; day 3; MP and CHDM. The procedure: as §1, §2
The A. niger spore suspensions were concentrated to a level of 1-2×10^8 spores/mL by centrifugation and resuspension in a portion of the resulting supernatant.
as §3, §4
Microplates were inoculated using the cultures or spore suspensions prepared as described above. The S. aureus cultures were used undiluted, while the E. coli and P. aeruginosa cultures were used either undiluted or after a 1:2 dilution in sterile TSB. The C. albicans cultures were used either undiluted or following a 2-fold concentration by centrifugation. One of two means of inoculation was used to deliver a final concentration of approximately 10^5 colony-forming units (CFU)/mL of C. albicans, 10^5 spores/mL of A. niger, or 10^6 CFU/mL of bacteria. The primary method used a stainless steel pin replicator (Nalge Nunc International) mounted on a hand-operated bench-top press (Schmidt Technology Corporation) fitted with a custom-built microplate holder to dispense one microliter of each inoculum from a “master” plate containing 50-100 μL of culture into the wells of the test plate. The pin replicator was sterilized before and between inoculations by immersing in ethanol and flaming. […]

For data set [6], the system named is Aspergillus niger. As to the kind of experiment: Test for adequate preservation in skin cream formulation (microorganism counts). The data set is classed as cell-based. To be noted: skin cream emulsion pH 6.75; concentration in label. How it is done:
(§6) A test for adequate preservation was carried out in accordance with the European Pharmacopea (6.0) and United States Pharmacopea (5.1). The testing consisted of the inoculation of a skin cream formulation serving as an emulsion substrate. The skin cream formulation having a pH of 6.75 was as follows: […]
(§7) This skin cream was the emulsion substrate, which formed the base for all further experimentation.
(§8) For Examples 3.1 through 3.10, 390.0 g cream were weighed into a 600-ml beaker. The cream was stirred at room temperature while adding the ingredients specified in Table 51. Each sample was stirred for 2 hours, then placed in the refrigerator until inoculated.
(§9) For Examples 3.11 and 3.12, 179.4 g cream were weighed into a 400-ml beaker. The cream was stirred at room temperature while adding the specified ingredients.
(§10) The samples of Examples 3.1 through 3.10 were challenged with specific organisms (see Table 51) to produce a contamination of between 1.0×10^5 cfu/g and 1.0×10^6 cfu/g. The actual inoculation counts resulting from these challenges were immediately determined by diluting in sterile buffered water and (spread plate method) plating for enumeration.
(§11) Challenge organisms were prepared in Mueller-Hinton broth, allowed to grow for 72 hours at 35° C.+/−2° C., centrifuged at 2500 rpm for 5 minutes, and the supernatant broth was removed. The microbial pellet was then re-diluted with sterile buffered water to a turbidity that matched previous 1.0×10^8 cfu/g concentrations of that organism's specific growth curve.
(§12) The test emulsions were maintained within a specific temperature range optimal for the organisms; 35° C.+/2° C. for the bacteria and 22° C.+/−2° C. for the fungi, for the first three days. They were kept at ambient room temperature for the subsequent time periods.
(§13) Subculture samples of approximately 1 gram were taken for counts at 7, 14, and 30 days and incubated under optimal conditions and nutrition for no less than 5 days. Subcultures were diluted 1:2, 1:10, 1:100, . . . , 1:10,000 and plated using the spread plate method onto Plate Count Agar and onto SAB Dextrose Agar for the Candida and Aspergillus species; and incubated as follows: 35° C.+/−2° C. for the Plate Count Agar and 22° C.+/−2° C. for the SAB Dextrose plates of Candida albicans and Aspergillus niger. Negative results were not reported before 7 days incubation, and counts were performed after no less than 5 days incubation. Because of the high viscosity of the test emulsion, at least a 1:2 dilution was required to perform the spread plate subcultures. 0-30 counts represent a 1 to 2 dilution, numbers […] a 1:10 dilution; and the rest represent dilutions of 1:100, 1:1000, or 1:10,000. […]

Data set [7] relates to Candida albicans. Described as above. The format is cell-based. As to conditions: skin cream emulsion pH 6.75; concentration in label. The procedure:
as §6, §7, §8, §9, §10, §11, §12, §13

Consider `OCC1(CO)CCCCC1` [1,1-CHDM, 1,1-cyclohexanedimethanol], for which the Solubility in data set [1] was ≤ 2.25 % (w/v). Moreover, the results for the “Antimicrobial efficacy (MIC) compared with 1,4-CHDM (in words)” value in data set [2] and in data set [2] (listed as 1,1-cyclohexanedimethanol) were “significant improvement in efficacy over 1,4-CHDM; also recorded: lower MIC values; also recorded: improved efficacy over 1,4-CHDM” and “measurable increase in antimicrobial efficacy over that of 1,4-cyclohexanedimethanol; also recorded: Antimicrobial efficacy increased against four of the five test organisms”, respectively.

As for `COC(=O)c1ccc(O)cc1` [MP, Methylparaben, reference compound], the QB/b in data set [3] (day 1) is 0.23; in data set [3] (day 2) it was 0.23; in data set [4], 0.14. In data set [5], the “QB/b: concentration of MP (MIC alone, or in the combination at an inhibitory concentration)” value is 0.050 weight percent. Moreover, the “SI (synergy index)” value in data set [5] was 1.00. Further, the “Antimicrobial activity against Aspergillus niger in skin cream (in words)” value in data set [6] is given as “not at this low concentration”. Also, the “Antimicrobial activity against Candida albicans in skin cream (in words)” value in data set [7] is “not at this low concentration”.
